Data: article PMC4521981 (Nature methods, 2015)

How the values were obtained:
[1] = system: MBP-SCRIB-4/4 PDZ construct; experiment: Automated holdup assay, benchmark set; format: binding, human; settings: overlaid electropherograms of peptide and biotin flowthroughs
[2] = system: MBP-SCRIB-34/4 PDZ tandem construct; experiment: Automated holdup assay, benchmark set; format: binding, human; settings: overlaid electropherograms of peptide and biotin flowthroughs

Sequence | binding strength in holdup [1] | binding strength in holdup [2]
GSGAGHETIV [TMFLJ_05] | no binding | 
GSGAGKETLV [NET1_05] |  | moderate binding
